Reference: PubChem BioAssay AID248 (DTP/NCI, 2004)
Where “and” joins values, the source holds several entries; their conditions need not be identical. Identical values can stand only once. Toxic doses and inconclusive results are not listed.

Tested on: L1210 leukemia ip in BDF1 mice, survival T/C
Test: NCI In Vivo Anticancer Drug Screen. Data for tumor model L1210 Leukemia (intraperitoneal) in B6D2F1 (BDF1) mice
Settings: endpoint: mean survival time, higher = longer survival
Summary of the method: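 Transplantable tumor model; survival measured in treated vs vehicle control mice. Value = treated/control.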

[1] = dose: 100.0 mg/kg/injection, schedule: Q01DX009 (ip), vehicle: saline
[2] = dose: 100.0 mg/kg/injection, schedule: Q04DX003 (ip), vehicle: saline
[3] = dose: 200.0 mg/kg/injection, schedule: Q01DX009 (ip), vehicle: saline
[4] = dose: 200.0 mg/kg/injection, schedule: Q04DX003 (ip), vehicle: saline
[5] = dose: 400.0 mg/kg/injection, schedule: Q01DX009 (ip), vehicle: saline
[6] = dose: 400.0 mg/kg/injection, schedule: Q04DX003 (ip), vehicle: saline
[7] = dose: 50.0 mg/kg/injection, schedule: Q01DX009 (ip), vehicle: saline
[8] = dose: 100.0 mg/kg/injection, schedule: Q04DX003 (ip), vehicle: saline with Tween-80
[9] = dose: 200.0 mg/kg/injection, schedule: Q04DX003 (ip), vehicle: saline with Tween-80
[10] = dose: 100.0 mg/kg/injection, schedule: Q01DX001 (ip), vehicle: saline
[11] = dose: 200.0 mg/kg/injection, schedule: Q01DX001 (ip), vehicle: saline
[12] = dose: 100.0 mg/kg/injection, schedule: Q01DX009 (ip), vehicle: Klucel (hydroxypropylcellulose) (HPC)
[13] = dose: 200.0 mg/kg/injection, schedule: Q01DX009 (ip), vehicle: Klucel (hydroxypropylcellulose) (HPC)
[14] = dose: 400.0 mg/kg/injection, schedule: Q01DX009 (ip), vehicle: Klucel (hydroxypropylcellulose) (HPC)
[15] = dose: 100.0 mg/kg/injection, schedule: Q04DX003 (ip), vehicle: Klucel (hydroxypropylcellulose) (HPC)
[16] = dose: 200.0 mg/kg/injection, schedule: Q04DX003 (ip), vehicle: Klucel (hydroxypropylcellulose) (HPC)
[17] = dose: 400.0 mg/kg/injection, schedule: Q04DX003 (ip), vehicle: Klucel (hydroxypropylcellulose) (HPC)
[18] = dose: 400.0 mg/kg/injection, schedule: Q01DX001 (ip), vehicle: saline
[19] = dose: 400.0 mg/kg/injection, schedule: Q04DX003 (ip), vehicle: saline with Tween-80
[20] = dose: 100.0 mg/kg/injection, schedule: Q01DX001 (ip), vehicle: Klucel (hydroxypropylcellulose) (HPC)
[21] = dose: 200.0 mg/kg/injection, schedule: Q01DX001 (ip), vehicle: Klucel (hydroxypropylcellulose) (HPC)
[22] = dose: 400.0 mg/kg/injection, schedule: Q01DX001 (ip), vehicle: Klucel (hydroxypropylcellulose) (HPC)
[23] = dose: 100.0 mg/kg/injection, schedule: Q01DX009 (ip), vehicle: saline with Tween-80
[24] = dose: 200.0 mg/kg/injection, schedule: Q01DX009 (ip), vehicle: saline with Tween-80
[25] = dose: 400.0 mg/kg/injection, schedule: Q01DX009 (ip), vehicle: saline with Tween-80

With `NC(=O)CC(O)C(N)=O` (stereo unspecified) the T/C [1] was 94 % of control, the T/C [2] was 104 % of control and the T/C [3] was 95 % of control. The T/C [4] was 106 % of control, the T/C [5] was 99 % of control and the T/C [6] was 96 % of control.
`CC(C)(O)C(I)C[n+]1ccccc1` (stereo unspecified) was tested, and the T/C [7] was 107 % of control, the T/C (dose: 88.0 mg/kg/injection, schedule: Q04DX003 (ip), vehicle: saline with Tween-80) was 124 % of control and the T/C [1] was 110 % of control and 113 % of control. For the same compound, the T/C [8] was 106 % of control, the T/C [2] was 102 % of control and 111 % of control and the T/C (dose: 133.0 mg/kg/injection, schedule: Q04DX003 (ip), vehicle: saline with Tween-80) was 119 % of control. For the same compound, the T/C (dose: 175.0 mg/kg/injection, schedule: Q04DX003 (ip), vehicle: saline) was 106 % of control, the T/C [3] was 117 % of control and 121 % of control and the T/C [9] was 117 % of control. For the same compound, the T/C [4] was 108 % of control, the T/C (dose: 265.0 mg/kg/injection, schedule: Q04DX003 (ip), vehicle: saline) was 114 % of control and the T/C [6] was 121 % of control. For the same compound, the T/C (dose: 600.0 mg/kg/injection, schedule: Q04DX003 (ip), vehicle: saline) was 90 % of control.
In the case of `CCC(Cl)COP(=O)(OCC(Cl)CC)C(OP(=S)(OCC(Cl)CC)OCC(Cl)CC)C(C)C` (stereo unspecified), the T/C (dose: 50.0 mg/kg/injection, schedule: Q04DX002 (sc), vehicle: olive oil, sesame oil, peanut oil) is reported as 104 % of control, the T/C (dose: 100.0 mg/kg/injection, schedule: Q04DX002 (sc), vehicle: olive oil, sesame oil, peanut oil) is reported as 118 % of control and the T/C (dose: 200.0 mg/kg/injection, schedule: Q04DX002 (sc), vehicle: olive oil, sesame oil, peanut oil) is reported as 110 % of control.
With `O=C1C=C(Nc2ccccc2)C(=O)N1c1ccccc1` the T/C [10] was 95 % of control and the T/C [11] was 95 % of control.
`OC1C=CC2C3C=CC(C3)C12` (stereo unspecified) was tested, and the T/C [7] was 102 % of control, the T/C (dose: 50.0 mg/kg/injection, schedule: Q04DX003 (ip), vehicle: saline) was 102 % of control and the T/C [1] was 104 % of control. The T/C [2] was 103 % of control, the T/C [3] was 95 % of control and the T/C [4] was 94 % of control. The T/C [5] was 95 % of control and the T/C [6] was 91 % of control.
In the case of `Cc1cc(Cl)ccc1NC(=O)Nc1cccc(F)c1`, the T/C [12] is reported as 88 % of control, the T/C [13] is reported as 90 % of control and the T/C [14] is reported as 86 % of control.
`CC(C)(C)c1cc(CO)cc(C(C)(C)C)c1O` was tested, and the T/C [12] was 108 % of control, the T/C [15] was 91 % of control and the T/C [13] was 100 % of control. The T/C [16] was 92 % of control, the T/C [14] was 96 % of control and the T/C [17] was 105 % of control.
With `CCCCN1c2ccccc2NP1(=S)c1ccccc1` (stereo unspecified) the T/C (dose: 100.0 mg/kg/injection, schedule: Q04DX002 (ip), vehicle: DMSO) was 93 % of control and the T/C (dose: 200.0 mg/kg/injection, schedule: Q04DX002 (ip), vehicle: DMSO) was 101 % of control.
For `CCOC(=O)c1ccc(N=Cc2cc(Cl)cc(Cl)c2O)cc1`, the T/C [10] was 95 % of control, the T/C [11] was 100 % of control and the T/C [18] was 93 % of control.
In the case of `O=C(NCCCl)OCCCl`, the T/C (dose: 100.0 mg/kg/injection, schedule: Q04DX002 (ip), vehicle: saline) is reported as 94 % of control, the T/C (dose: 200.0 mg/kg/injection, schedule: Q04DX002 (ip), vehicle: saline) is reported as 97 % of control and the T/C (dose: 400.0 mg/kg/injection, schedule: Q04DX002 (ip), vehicle: saline) is reported as 94 % of control.
With `COc1ccc(OC)c(/C=C/c2ccc(NC(=O)C(Cl)(Cl)Cl)cc2)c1` the T/C [12] was 98 % of control, the T/C [13] was 93 % of control and the T/C [14] was 102 % of control.
`CCCCCC/C=C/C=C/C(C)C` was tested, and the T/C (dose: 75.0 mg/kg/injection, schedule: Q01DX001 (ip), vehicle: saline) was 95 % of control, the T/C (dose: 75.0 mg/kg/injection, schedule: Q04DX003 (ip), vehicle: saline) was 104 % of control and the T/C (dose: 150.0 mg/kg/injection, schedule: Q01DX001 (ip), vehicle: saline) was 101 % of control. For the same compound, the T/C (dose: 150.0 mg/kg/injection, schedule: Q04DX003 (ip), vehicle: saline) was 102 % of control, the T/C (dose: 300.0 mg/kg/injection, schedule: Q01DX001 (ip), vehicle: saline) was 105 % of control and the T/C (dose: 300.0 mg/kg/injection, schedule: Q04DX003 (ip), vehicle: saline) was 100 % of control.
With `CCCOP(=O)(OCCC)C(OC(=O)C(C)(C)SC(=S)CCC)=C(C)C` the T/C [8] was 97 % of control, the T/C [9] was 100 % of control and the T/C [19] was 94 % of control.
With `CC1Oc2ccccc2OC1CN1CCC2(CC1)C(=O)N(C)CN2c1ccccc1` (stereo unspecified) the T/C [20] was 88 % of control, the T/C [21] was 99 % of control and the T/C [22] was 86 % of control.
For `CCOC(=O)CNS(=O)(=O)c1ccccc1`, the T/C [10] was 98 % of control, the T/C [11] was 101 % of control and the T/C [18] was 101 % of control.
`CC(=O)C1=C(O)c2ccccc2C(=O)C1=O` was tested, and the T/C (dose: 100.0 mg/kg/injection, schedule: Q01DX001 (ip), vehicle: water) was 96 % of control.
With `C1CN2CCOC2O1` the T/C [1] was 101 % of control, the T/C [3] was 108 % of control and the T/C [5] was 100 % of control.
In the case of `C#CC(C)(C)OC(C)=O`, the T/C [20] is reported as 99 % of control, the T/C [8] is reported as 92 % of control and the T/C [21] is reported as 99 % of control. For the same compound, the T/C [9] was 103 % of control, the T/C [22] was 104 % of control and the T/C [19] was 92 % of control.
With `COc1ccc(OC)c(C(Nc2ccc3cn[nH]c3c2)P(=O)(c2ccccc2)c2ccccc2)c1` (stereo unspecified) the T/C (dose: 100.0 mg/kg/injection, schedule: Q01DX001 (ip), vehicle: saline with Tween-80) was 93 % of control, the T/C [23] was 95 % of control and the T/C (dose: 100.0 mg/kg/injection, schedule: Q04DX002 (ip), vehicle: saline with Tween-80) was 103 % of control and 104 % of control. For the same compound, the T/C [8] was 96 % of control, the T/C (dose: 200.0 mg/kg/injection, schedule: Q01DX001 (ip), vehicle: saline with Tween-80) was 103 % of control and the T/C [24] was 95 % of control. The T/C (dose: 200.0 mg/kg/injection, schedule: Q04DX002 (ip), vehicle: saline with Tween-80) was 95 % of control and 90 % of control, the T/C [9] was 95 % of control and the T/C (dose: 400.0 mg/kg/injection, schedule: Q01DX001 (ip), vehicle: saline with Tween-80) was 92 % of control. For the same compound, the T/C [25] was 97 % of control, the T/C (dose: 400.0 mg/kg/injection, schedule: Q04DX002 (ip), vehicle: saline with Tween-80) was 93 % of control and the T/C [19] was 92 % of control.
`O=S(=O)(O)c1ccccc1.O=S(=O)(O)c1ccccc1.[NH-]C1CCCCC1[NH-].[Pt+2]` was tested, and the T/C (dose: 0.5 mg/kg/injection, schedule: Q04DX003 (ip), vehicle: dextrose) was 112 % of control, the T/C (dose: 2.0 mg/kg/injection, schedule: Q04DX003 (ip), vehicle: dextrose) was 154 % of control and the T/C (dose: 4.0 mg/kg/injection, schedule: Q04DX003 (ip), vehicle: dextrose) was 173 % of control. For the same compound, the T/C (dose: 6.0 mg/kg/injection, schedule: Q04DX003 (ip), vehicle: dextrose) was 182 % of control.
For `COC(=O)c1cc(Cl)ccc1OCC(=O)Nc1ccc([N+](=O)[O-])cc1`, the T/C [12] was 98 % of control, the T/C [15] was 102 % of control and the T/C [13] was 93 % of control. For the same compound, the T/C [16] was 95 % of control, the T/C [14] was 105 % of control and the T/C [17] was 103 % of control.
`CC(C)=C(Cl)c1c(C)cc(C)c(CC(N)=O)c1C` was tested, and the T/C [12] was 98 % of control, the T/C [15] was 93 % of control and the T/C [13] was 105 % of control. The T/C [16] was 98 % of control, the T/C [14] was 96 % of control and the T/C [17] was 98 % of control.
`COc1cc(Cl)ccc1NC(=O)Oc1ccc(C(=O)OCc2ccccc2)cc1` was tested, and the T/C [1] was 103 % of control, the T/C [3] was 97 % of control and the T/C [5] was 111 % of control.
`CCCCNS(=O)(=O)CCCC` was tested, and the T/C [8] was 105 % of control, the T/C [9] was 101 % of control and the T/C [19] was 97 % of control.
With `COc1cc(O)c(C(C)=O)c(OC)c1` the T/C [23] was 98 % of control, the T/C [8] was 101 % of control and the T/C [24] was 96 % of control. For the same compound, the T/C [9] was 95 % of control, the T/C [25] was 90 % of control and the T/C [19] was 93 % of control.
`NC(N)=N/N=C/c1nccc2ccccc12` was tested, and the T/C (dose: 50.0 mg/kg/injection, schedule: Q01DX001 (ip), vehicle: saline) was 102 % of control and the T/C [10] was 102 % of control.
In the case of `O=C(/C=C/c1ccccc1)NN1CCCCC1`, the T/C [12] is reported as 94 % of control, the T/C [15] is reported as 100 % of control and the T/C [13] is reported as 110 % of control. The T/C [16] was 98 % of control.
In the case of `COc1cc(C(=O)N/N=C/c2ccc(N(C)C)cc2)cc(OC)c1OC`, the T/C [8] is reported as 102 % of control, the T/C [9] is reported as 102 % of control and the T/C [19] is reported as 89 % of control.
